Here are results for two compounds from ChEMBL document CHEMBL1909046, “DrugMatrix in vitro pharmacology data”.

C-C chemokine receptor type 2, sequence (P41597 whole entry): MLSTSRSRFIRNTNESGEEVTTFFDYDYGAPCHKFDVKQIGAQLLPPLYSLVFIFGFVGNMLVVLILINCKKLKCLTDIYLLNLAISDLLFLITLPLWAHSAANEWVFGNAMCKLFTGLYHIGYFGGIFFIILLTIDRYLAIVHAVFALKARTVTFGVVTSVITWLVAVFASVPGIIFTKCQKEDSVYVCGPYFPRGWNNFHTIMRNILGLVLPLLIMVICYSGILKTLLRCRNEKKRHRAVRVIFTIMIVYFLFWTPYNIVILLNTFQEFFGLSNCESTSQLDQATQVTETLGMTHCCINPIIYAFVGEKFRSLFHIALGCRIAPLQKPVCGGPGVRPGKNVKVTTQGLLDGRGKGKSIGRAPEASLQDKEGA
Estrogen receptor beta, sequence (Q92731 whole entry): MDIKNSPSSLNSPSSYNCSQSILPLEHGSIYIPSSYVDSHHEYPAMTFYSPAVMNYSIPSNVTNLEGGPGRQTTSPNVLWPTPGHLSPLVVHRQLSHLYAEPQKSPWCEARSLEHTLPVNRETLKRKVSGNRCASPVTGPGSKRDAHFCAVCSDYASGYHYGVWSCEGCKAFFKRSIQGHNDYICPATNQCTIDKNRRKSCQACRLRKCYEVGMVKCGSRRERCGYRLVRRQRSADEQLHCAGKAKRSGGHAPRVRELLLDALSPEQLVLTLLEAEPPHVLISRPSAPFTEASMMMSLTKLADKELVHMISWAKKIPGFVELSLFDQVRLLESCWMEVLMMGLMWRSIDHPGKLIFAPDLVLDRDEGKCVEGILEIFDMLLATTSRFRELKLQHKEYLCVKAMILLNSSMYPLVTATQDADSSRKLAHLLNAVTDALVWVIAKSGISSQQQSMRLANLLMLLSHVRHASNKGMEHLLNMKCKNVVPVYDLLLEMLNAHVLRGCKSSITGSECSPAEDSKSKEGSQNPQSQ

Tested on in the first assay: not listed separately
The assay is described as follows: DRUGMATRIX: Glutamate, AMPA radioligand binding (ligand: [3H] AMPA). As to conditions: Not Active = under 50% inhibition at 10 µM. The class given is cell membranes, Rattus norvegicus, Wistar, Cerebral cortex, Membrane.
Regarding `CC(=O)[C@@]1(O)CC[C@H]2[C@@H]3C[C@H](C)C4=CC(=O)C=C[C@]4(C)[C@@]3(F)[C@@H](O)C[C@@]21C` [FLUOROMETHOLONE], the IC50 entry was “Not Active” and the Ki result is reported as “Not Active”.
For `C[C@]12CCC(=O)C=C1CC[C@@H]1[C@@H]2C(=O)C[C@@]2(C)[C@H]1CC[C@]2(O)C(=O)CO` [CORTISONE], the IC50 result was “Not Active” and the Ki result is recorded as “Not Active”.

Tested on in a further assay: not listed separately
The assay is described as follows: DRUGMATRIX: Phorbol Ester radioligand binding (ligand: [3H] PDBu). The class given is cell membranes, Mus musculus, ICR, Brain, Membrane. The conditions noted are these: Not Active = under 50% inhibition at 10 µM.
Consider `CC(=O)[C@@]1(O)CC[C@H]2[C@@H]3C[C@H](C)C4=CC(=O)C=C[C@]4(C)[C@@]3(F)[C@@H](O)C[C@@]21C` [FLUOROMETHOLONE], for which the IC50 result was “Not Active” and the Ki entry was “Not Active”.
As to `C[C@]12CCC(=O)C=C1CC[C@@H]1[C@@H]2C(=O)C[C@@]2(C)[C@H]1CC[C@]2(O)C(=O)CO` [CORTISONE], the IC50 result was “Not Active” and the Ki result is reported as “Not Active”.

A further assay has as its target Estrogen receptor beta (Homo sapiens, UniProt Q92731). Further: in other assays of this panel Not Active means under 50% inhibition at 10 µM.
Test: not given
The conditions noted are these: sf9.
As for `CC(=O)[C@@]1(O)CC[C@H]2[C@@H]3C[C@H](C)C4=CC(=O)C=C[C@]4(C)[C@@]3(F)[C@@H](O)C[C@@]21C` [FLUOROMETHOLONE], the IC50 result was “Not Active”.
As to `C[C@]12CCC(=O)C=C1CC[C@@H]1[C@@H]2C(=O)C[C@@]2(C)[C@H]1CC[C@]2(O)C(=O)CO` [CORTISONE], the IC50 entry is “Not Active”.

The next assay addresses C-C chemokine receptor type 2 (Homo sapiens, UniProt P41597).
Test: not given
As to conditions: cho-k1. The class given is cell membranes, CHO-K1, Membrane.
With `CC(=O)[C@@]1(O)CC[C@H]2[C@@H]3C[C@H](C)C4=CC(=O)C=C[C@]4(C)[C@@]3(F)[C@@H](O)C[C@@]21C` [FLUOROMETHOLONE], the IC50 result is reported as “Not Active”.
With `C[C@]12CCC(=O)C=C1CC[C@@H]1[C@@H]2C(=O)C[C@@]2(C)[C@H]1CC[C@]2(O)C(=O)CO` [CORTISONE], the IC50 entry is given as “Not Active”.

In the next assay the target is T1, Neuropeptide Y receptor type 1 (Homo sapiens, UniProt P25929). Further: in other assays of this panel Not Active means under 50% inhibition at 10 µM.
T1 sequence (P25929 whole entry): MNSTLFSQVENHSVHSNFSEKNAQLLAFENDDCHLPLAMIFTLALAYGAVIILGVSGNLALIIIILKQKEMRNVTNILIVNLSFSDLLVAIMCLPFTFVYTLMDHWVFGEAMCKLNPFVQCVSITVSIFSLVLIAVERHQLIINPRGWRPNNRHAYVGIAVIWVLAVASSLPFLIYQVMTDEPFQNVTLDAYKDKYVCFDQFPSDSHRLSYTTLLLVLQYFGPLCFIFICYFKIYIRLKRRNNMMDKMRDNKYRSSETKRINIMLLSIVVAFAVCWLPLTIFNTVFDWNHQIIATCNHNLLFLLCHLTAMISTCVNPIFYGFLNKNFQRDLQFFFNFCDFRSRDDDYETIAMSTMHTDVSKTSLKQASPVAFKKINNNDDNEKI
Test: not given
The class given is cell membranes, Membrane. The conditions noted are these: sk-n-mc.
In the case of `CC(=O)[C@@]1(O)CC[C@H]2[C@@H]3C[C@H](C)C4=CC(=O)C=C[C@]4(C)[C@@]3(F)[C@@H](O)C[C@@]21C` [FLUOROMETHOLONE], the IC50 result is reported as “Not Active”.
Same read-out and setting: for `C[C@]12CCC(=O)C=C1CC[C@@H]1[C@@H]2C(=O)C[C@@]2(C)[C@H]1CC[C@]2(O)C(=O)CO` [CORTISONE] the value was “Not Active”.

Another assay has as its target T2, Neutrophil elastase (Homo sapiens, UniProt P08246).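 Further: inhibition of neutrophil elastase enzyme activity, measured with a p-nitroanilide-linked peptide substrate; in other assays of this panel Not Active means under 50% inhibition at 10 µM.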
T2 sequence (P08246 whole entry): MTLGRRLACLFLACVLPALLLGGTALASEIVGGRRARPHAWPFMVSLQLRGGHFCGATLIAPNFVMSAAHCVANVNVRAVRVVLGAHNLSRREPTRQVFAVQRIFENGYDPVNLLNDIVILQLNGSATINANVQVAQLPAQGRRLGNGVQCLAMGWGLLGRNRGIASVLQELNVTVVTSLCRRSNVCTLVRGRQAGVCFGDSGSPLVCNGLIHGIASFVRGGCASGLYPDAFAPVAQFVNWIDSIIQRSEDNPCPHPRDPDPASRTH
Test: not given
The assay is classed as tissue-based.
Conditions: not given
For the compound `CC(=O)[C@@]1(O)CC[C@H]2[C@@H]3C[C@H](C)C4=CC(=O)C=C[C@]4(C)[C@@]3(F)[C@@H](O)C[C@@]21C` [FLUOROMETHOLONE], the IC50 result is “Not Active”.
For the compound `C[C@]12CCC(=O)C=C1CC[C@@H]1[C@@H]2C(=O)C[C@@]2(C)[C@H]1CC[C@]2(O)C(=O)CO` [CORTISONE], the IC50 result is listed as “Not Active”.

The next assay deals with T3, C-C chemokine receptor type 4 (Homo sapiens, UniProt P51679).
T3 sequence (P51679 whole entry): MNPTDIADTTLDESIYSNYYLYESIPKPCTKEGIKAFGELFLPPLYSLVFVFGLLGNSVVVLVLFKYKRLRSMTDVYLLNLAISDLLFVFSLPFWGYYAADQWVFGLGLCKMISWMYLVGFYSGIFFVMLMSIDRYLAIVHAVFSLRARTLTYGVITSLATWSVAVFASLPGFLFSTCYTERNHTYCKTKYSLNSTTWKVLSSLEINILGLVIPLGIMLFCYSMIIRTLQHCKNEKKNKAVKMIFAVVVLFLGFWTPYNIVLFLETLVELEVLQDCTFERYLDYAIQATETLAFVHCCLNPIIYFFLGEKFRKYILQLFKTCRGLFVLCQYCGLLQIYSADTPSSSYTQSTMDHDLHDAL
Test: not given
The assay is classed as cell membranes, Membrane. The conditions noted are these: chem-1.
In the case of `CC(=O)[C@@]1(O)CC[C@H]2[C@@H]3C[C@H](C)C4=CC(=O)C=C[C@]4(C)[C@@]3(F)[C@@H](O)C[C@@]21C` [FLUOROMETHOLONE], the IC50 entry is “Not Active”.
Regarding `C[C@]12CCC(=O)C=C1CC[C@@H]1[C@@H]2C(=O)C[C@@]2(C)[C@H]1CC[C@]2(O)C(=O)CO` [CORTISONE], the IC50 entry is “Not Active”.

In a further assay the target is cGMP-specific 3',5'-cyclic phosphodiesterase (Homo sapiens, UniProt O76074). As to the kind of experiment: DRUGMATRIX: Phosphodiesterase PDE5 enzyme inhibition (substrate: [3H]cGMP + cGMP). The class given is tissue-based, Platelet. As to conditions: platelet; Not Active = under 50% inhibition at 10 µM.
Turning to `CC(=O)[C@@]1(O)CC[C@H]2[C@@H]3C[C@H](C)C4=CC(=O)C=C[C@]4(C)[C@@]3(F)[C@@H](O)C[C@@]21C` [FLUOROMETHOLONE], the IC50 result is given as “Not Active”.
For the compound `C[C@]12CCC(=O)C=C1CC[C@@H]1[C@@H]2C(=O)C[C@@]2(C)[C@H]1CC[C@]2(O)C(=O)CO` [CORTISONE], the IC50 entry was “Not Active”.

Tested on in the next assay: not listed separately
The assay is described as follows: DRUGMATRIX: ATPase, Na+/K+ enzyme inhibition (substrate: ATP). As to conditions: Not Active = under 50% inhibition at 10 µM. The class given is tissue-based, Sus scrofa, Heart.
As for `CC(=O)[C@@]1(O)CC[C@H]2[C@@H]3C[C@H](C)C4=CC(=O)C=C[C@]4(C)[C@@]3(F)[C@@H](O)C[C@@]21C` [FLUOROMETHOLONE], the IC50 result is listed as “Not Active” and the Ki result was “Not Active”.
As to `C[C@]12CCC(=O)C=C1CC[C@@H]1[C@@H]2C(=O)C[C@@]2(C)[C@H]1CC[C@]2(O)C(=O)CO` [CORTISONE], the IC50 entry is reported as “Not Active” and the Ki result is recorded as “Not Active”.

A further assay has as its target T4, Leukotriene C4 synthase (Cavia porcellus, UniProt A6XA80).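 Further: enzyme inhibition assay of leukotriene C4 synthase, using LTA4 as the substrate; in other assays of this panel Not Active means under 50% inhibition at 10 µM.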
T4 sequence (A6XA80 whole entry): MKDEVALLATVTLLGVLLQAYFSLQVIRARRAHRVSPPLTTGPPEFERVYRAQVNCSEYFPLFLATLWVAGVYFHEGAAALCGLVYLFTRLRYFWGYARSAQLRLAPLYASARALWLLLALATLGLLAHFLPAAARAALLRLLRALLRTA
The assay is described as follows: biochemical. The class given is tissue-based, Lung.
Conditions: not given
On to `CC(=O)[C@@]1(O)CC[C@H]2[C@@H]3C[C@H](C)C4=CC(=O)C=C[C@]4(C)[C@@]3(F)[C@@H](O)C[C@@]21C` [FLUOROMETHOLONE], for which the IC50 entry is listed as “Not Active”.
The same measure, in the same setting: for `C[C@]12CCC(=O)C=C1CC[C@@H]1[C@@H]2C(=O)C[C@@]2(C)[C@H]1CC[C@]2(O)C(=O)CO` [CORTISONE] the value was “Not Active”.

Tested on in another assay: not listed separately
The assay is described as follows: DRUGMATRIX: Glutamate, Kainate radioligand binding (ligand: [3H] Kainic acid). As to conditions: Not Active = under 50% inhibition at 10 µM. The class given is cell membranes, Rattus norvegicus, Wistar, Brain, Membrane.
Take `CC(=O)[C@@]1(O)CC[C@H]2[C@@H]3C[C@H](C)C4=CC(=O)C=C[C@]4(C)[C@@]3(F)[C@@H](O)C[C@@]21C` [FLUOROMETHOLONE]: the IC50 result is given as “Not Active” and the Ki result is recorded as “Not Active”.
Consider `C[C@]12CCC(=O)C=C1CC[C@@H]1[C@@H]2C(=O)C[C@@]2(C)[C@H]1CC[C@]2(O)C(=O)CO` [CORTISONE], for which the IC50 result is given as “Not Active” and the Ki entry is listed as “Not Active”.

The next assay deals with T5, Nitric oxide synthase, inducible (Mus musculus, UniProt P29477).
T5 sequence (P29477 whole entry): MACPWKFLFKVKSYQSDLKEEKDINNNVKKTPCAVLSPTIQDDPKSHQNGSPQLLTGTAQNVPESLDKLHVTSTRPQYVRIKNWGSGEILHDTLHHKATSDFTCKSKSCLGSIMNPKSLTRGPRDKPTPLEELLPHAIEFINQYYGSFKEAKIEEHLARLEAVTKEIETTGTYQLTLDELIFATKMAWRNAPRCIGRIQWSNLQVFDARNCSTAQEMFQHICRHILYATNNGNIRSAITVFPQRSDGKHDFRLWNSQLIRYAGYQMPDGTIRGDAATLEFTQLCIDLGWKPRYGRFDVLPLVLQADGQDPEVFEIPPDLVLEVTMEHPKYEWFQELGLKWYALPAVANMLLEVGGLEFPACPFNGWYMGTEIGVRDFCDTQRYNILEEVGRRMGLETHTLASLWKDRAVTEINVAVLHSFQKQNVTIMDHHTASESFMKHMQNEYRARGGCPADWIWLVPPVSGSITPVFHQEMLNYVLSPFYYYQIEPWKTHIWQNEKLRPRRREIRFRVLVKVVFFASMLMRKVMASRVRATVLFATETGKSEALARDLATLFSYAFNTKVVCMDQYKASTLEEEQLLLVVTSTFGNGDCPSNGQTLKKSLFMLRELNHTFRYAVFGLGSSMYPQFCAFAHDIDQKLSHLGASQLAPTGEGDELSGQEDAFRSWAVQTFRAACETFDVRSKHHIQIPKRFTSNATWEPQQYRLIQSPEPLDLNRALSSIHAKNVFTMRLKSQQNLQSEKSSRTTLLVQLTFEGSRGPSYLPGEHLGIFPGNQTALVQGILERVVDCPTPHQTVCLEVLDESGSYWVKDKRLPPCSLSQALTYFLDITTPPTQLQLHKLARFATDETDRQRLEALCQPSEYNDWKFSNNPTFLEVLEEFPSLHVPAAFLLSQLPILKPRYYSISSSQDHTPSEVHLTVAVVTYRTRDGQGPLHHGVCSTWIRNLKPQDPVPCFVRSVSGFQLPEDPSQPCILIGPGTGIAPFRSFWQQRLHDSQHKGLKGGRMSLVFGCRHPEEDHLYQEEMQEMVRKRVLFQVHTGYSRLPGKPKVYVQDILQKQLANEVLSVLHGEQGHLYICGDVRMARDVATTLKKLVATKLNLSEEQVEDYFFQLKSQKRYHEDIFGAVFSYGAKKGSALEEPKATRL
Test: not given
Also noted: species or system Escherichia coli.
Conditions: not given
Turning to `CC(=O)[C@@]1(O)CC[C@H]2[C@@H]3C[C@H](C)C4=CC(=O)C=C[C@]4(C)[C@@]3(F)[C@@H](O)C[C@@]21C` [FLUOROMETHOLONE], the IC50 result is reported as “Not Active”.
As for `C[C@]12CCC(=O)C=C1CC[C@@H]1[C@@H]2C(=O)C[C@@]2(C)[C@H]1CC[C@]2(O)C(=O)CO` [CORTISONE], the IC50 result is given as “Not Active”.

For the next assay, the target named is Insulin receptor (Rattus norvegicus, UniProt P15127). Further: in other assays of this panel Not Active means under 50% inhibition at 10 µM.
Insulin receptor, sequence (P15127 27-759 limits assumed): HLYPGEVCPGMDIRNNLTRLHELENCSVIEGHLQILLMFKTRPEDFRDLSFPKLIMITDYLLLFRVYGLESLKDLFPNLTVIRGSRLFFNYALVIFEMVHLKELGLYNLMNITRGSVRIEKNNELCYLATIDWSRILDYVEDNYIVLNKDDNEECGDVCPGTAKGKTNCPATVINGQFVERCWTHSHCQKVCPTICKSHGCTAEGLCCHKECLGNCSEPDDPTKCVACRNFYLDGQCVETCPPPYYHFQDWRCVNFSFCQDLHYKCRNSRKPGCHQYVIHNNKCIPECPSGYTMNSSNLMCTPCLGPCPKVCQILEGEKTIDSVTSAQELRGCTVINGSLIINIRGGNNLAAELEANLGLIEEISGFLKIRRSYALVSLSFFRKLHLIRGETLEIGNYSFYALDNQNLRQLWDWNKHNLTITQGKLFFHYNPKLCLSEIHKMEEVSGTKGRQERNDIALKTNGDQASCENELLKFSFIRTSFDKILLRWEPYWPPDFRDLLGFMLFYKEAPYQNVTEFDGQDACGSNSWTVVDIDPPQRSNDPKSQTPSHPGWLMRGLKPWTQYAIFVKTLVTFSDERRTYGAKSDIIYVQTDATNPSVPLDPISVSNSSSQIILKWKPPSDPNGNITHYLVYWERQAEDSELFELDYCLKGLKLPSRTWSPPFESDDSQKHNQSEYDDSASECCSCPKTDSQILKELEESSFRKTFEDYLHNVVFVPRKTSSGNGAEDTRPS
Insulin receptor, sequence (P15127 764-1383 limits assumed): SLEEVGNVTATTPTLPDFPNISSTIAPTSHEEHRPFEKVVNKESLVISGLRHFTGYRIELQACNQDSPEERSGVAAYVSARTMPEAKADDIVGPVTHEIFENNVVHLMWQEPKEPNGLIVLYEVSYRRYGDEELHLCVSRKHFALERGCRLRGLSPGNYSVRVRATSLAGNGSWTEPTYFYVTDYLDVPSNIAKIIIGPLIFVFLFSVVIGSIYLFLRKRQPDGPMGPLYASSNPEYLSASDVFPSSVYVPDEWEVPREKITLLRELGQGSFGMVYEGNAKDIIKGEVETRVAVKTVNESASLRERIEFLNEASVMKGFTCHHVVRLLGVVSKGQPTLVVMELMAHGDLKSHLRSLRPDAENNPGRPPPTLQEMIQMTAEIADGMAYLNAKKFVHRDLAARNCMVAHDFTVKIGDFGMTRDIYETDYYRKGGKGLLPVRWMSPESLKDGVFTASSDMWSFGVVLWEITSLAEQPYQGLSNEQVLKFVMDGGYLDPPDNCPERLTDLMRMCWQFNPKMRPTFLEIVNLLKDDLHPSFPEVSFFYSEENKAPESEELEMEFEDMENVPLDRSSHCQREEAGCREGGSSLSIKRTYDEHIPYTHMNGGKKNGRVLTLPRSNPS
Test: not given
The assay is classed as cell membranes, Wistar, Liver, Membrane.
Conditions: not given
Regarding `CC(=O)[C@@]1(O)CC[C@H]2[C@@H]3C[C@H](C)C4=CC(=O)C=C[C@]4(C)[C@@]3(F)[C@@H](O)C[C@@]21C` [FLUOROMETHOLONE], the IC50 result is on record as “Not Active”.
For the compound `C[C@]12CCC(=O)C=C1CC[C@@H]1[C@@H]2C(=O)C[C@@]2(C)[C@H]1CC[C@]2(O)C(=O)CO` [CORTISONE], the IC50 entry is on record as “Not Active”.
